Data reported in the NIST ThermoML archive (doi:10.1016/j.jct.2016.12.033).

Assay: mn = molality of the nth substance listed, in mol/kg
Conditions: 101.3 kPa, Liquid; for viscosity: Capillary tube (Ostwald / Ubbelohde) method; for mass density: Pycnometric method

Cc1ncc(CO)c(CO)c1O.Cl [5-hydroxy-6-methyl-3,4-pyridinedimethanol hydrochloride] + O
Conditions	mass density [kg/m3]	viscosity [mPa·s]
275.15 K, m1 = 0.0101	1000.6	1.687
275.15 K, m1 = 0.0204	1001.28	1.695
275.15 K, m1 = 0.03	1001.91	1.703
275.15 K, m1 = 0.0357	1002.27	1.706
275.15 K, m1 = 0.0401	1002.55	1.708
275.15 K, m1 = 0.0454	1002.9	1.712
275.15 K, m1 = 0.0505	1003.22	1.719
275.15 K, m1 = 0.0557	1003.54	1.722
275.15 K, m1 = 0.0695	1004.4	1.725
275.15 K, m1 = 0.0766	1004.84	1.73
275.15 K, m1 = 0.0801	1005.06	1.735
275.15 K, m1 = 0.0857	1005.41	1.737
275.15 K, m1 = 0.0882	1005.58	1.739
275.15 K, m1 = 0.1004	1006.38	1.75
277.15 K, m1 = 0.0099	1000.61	1.576
277.15 K, m1 = 0.0202	1001.27	1.58
277.15 K, m1 = 0.0252	1001.59	1.584
277.15 K, m1 = 0.0299	1001.89	1.588
277.15 K, m1 = 0.035	1002.22	1.592
277.15 K, m1 = 0.04	1002.54	1.597
277.15 K, m1 = 0.0497	1003.15	1.603
277.15 K, m1 = 0.0598	1003.79	1.606
277.15 K, m1 = 0.0658	1004.16	1.607
277.15 K, m1 = 0.0683	1004.32	1.609
277.15 K, m1 = 0.0753	1004.75	1.615
277.15 K, m1 = 0.0797	1005.02	1.619
277.15 K, m1 = 0.0882	1005.55	1.625
277.15 K, m1 = 0.1004	1006.29	1.629
279.15 K, m1 = 0.01	1000.56	1.477
279.15 K, m1 = 0.0199	1001.18	1.479
279.15 K, m1 = 0.0253	1001.51	1.484
279.15 K, m1 = 0.0298	1001.8	1.488
279.15 K, m1 = 0.0351	1002.13	1.495
279.15 K, m1 = 0.0397	1002.42	1.5
279.15 K, m1 = 0.0492	1003	1.499
279.15 K, m1 = 0.055	1003.36	1.507
279.15 K, m1 = 0.0578	1003.53	1.505
279.15 K, m1 = 0.0648	1003.96	1.515
279.15 K, m1 = 0.069	1004.22	1.522
279.15 K, m1 = 0.0798	1004.9	1.524
279.15 K, m1 = 0.0897	1005.51	1.53
279.15 K, m1 = 0.0996	1006.16	1.535

Cc1ncc(C[n+]2csc(CCO)c2C)c(N)n1.Cl.[Cl-] [thiamine hydrochloride] + O
Conditions	mass density [kg/m3]	viscosity [mPa·s]
275.15 K, m1 = 0.0101	1001.03	1.692
275.15 K, m1 = 0.0201	1002.1	1.7
275.15 K, m1 = 0.0249	1002.6	1.712
275.15 K, m1 = 0.0302	1003.15	1.718
275.15 K, m1 = 0.04	1004.19	1.728
275.15 K, m1 = 0.0451	1004.73	1.736
275.15 K, m1 = 0.0499	1005.24	1.745
275.15 K, m1 = 0.055	1005.78	1.752
275.15 K, m1 = 0.0611	1006.45	1.759
275.15 K, m1 = 0.0645	1006.81	1.76
275.15 K, m1 = 0.0701	1007.4	1.771
275.15 K, m1 = 0.0751	1007.91	1.776
275.15 K, m1 = 0.0792	1008.33	1.776
275.15 K, m1 = 0.0897	1009.33	1.788
275.15 K, m1 = 0.1001	1010.2	1.8
277.15 K, m1 = 0.0101	1001.04	1.575
277.15 K, m1 = 0.0201	1002.1	1.591
277.15 K, m1 = 0.025	1002.61	1.593
277.15 K, m1 = 0.0299	1003.12	1.604
277.15 K, m1 = 0.0401	1004.18	1.61
277.15 K, m1 = 0.0452	1004.7	1.621
277.15 K, m1 = 0.0501	1005.2	1.627
277.15 K, m1 = 0.055	1005.69	1.632
277.15 K, m1 = 0.0598	1006.18	1.64
277.15 K, m1 = 0.0653	1006.74	1.646
277.15 K, m1 = 0.0704	1007.25	1.66
277.15 K, m1 = 0.0803	1008.25	1.672
277.15 K, m1 = 0.0822	1008.45	1.671
277.15 K, m1 = 0.0898	1009.24	1.678
279.15 K, m1 = 0.008	1000.76	1.481
279.15 K, m1 = 0.02	1002	1.494
279.15 K, m1 = 0.0249	1002.52	1.497
279.15 K, m1 = 0.0301	1003.05	1.505
279.15 K, m1 = 0.04	1004.08	1.512
279.15 K, m1 = 0.045	1004.59	1.517
279.15 K, m1 = 0.0501	1005.11	1.521
279.15 K, m1 = 0.0552	1005.63	1.527
279.15 K, m1 = 0.0603	1006.15	1.529
279.15 K, m1 = 0.0652	1006.65	1.542
279.15 K, m1 = 0.0703	1007.16	1.549
279.15 K, m1 = 0.0751	1007.64	1.556
279.15 K, m1 = 0.0798	1008.1	1.563
279.15 K, m1 = 0.0897	1009.09	1.57
279.15 K, m1 = 0.1001	1010.12	1.581

O=C1O[C@H]([C@@H](O)CO)C([O-])=C1O.[Na+] [sodium L-ascorbate] + O
Conditions	mass density [kg/m3]	viscosity [mPa·s]
275.15 K, m1 = 0.01	1001.05	1.68
275.15 K, m1 = 0.0201	1002.2	1.691
275.15 K, m1 = 0.0303	1003.31	1.703
275.15 K, m1 = 0.0348	1003.83	1.703
275.15 K, m1 = 0.04	1004.41	1.706
275.15 K, m1 = 0.0451	1004.94	1.708
275.15 K, m1 = 0.05	1005.5	1.718
275.15 K, m1 = 0.0598	1006.59	1.727
275.15 K, m1 = 0.0699	1007.71	1.736
275.15 K, m1 = 0.0749	1008.27	1.745
275.15 K, m1 = 0.0835	1009.12	1.748
275.15 K, m1 = 0.0849	1009.32	1.747
275.15 K, m1 = 0.0902	1009.85	1.757
275.15 K, m1 = 0.0999	1010.96	1.765
277.15 K, m1 = 0.01	1001.09	1.572
277.15 K, m1 = 0.02	1002.17	1.578
277.15 K, m1 = 0.0301	1003.31	1.586
277.15 K, m1 = 0.0351	1003.85	1.591
277.15 K, m1 = 0.0402	1004.45	1.595
277.15 K, m1 = 0.05	1005.5	1.601
277.15 K, m1 = 0.0601	1006.59	1.609
277.15 K, m1 = 0.065	1007.13	1.616
277.15 K, m1 = 0.0697	1007.7	1.619
277.15 K, m1 = 0.075	1008.2	1.626
277.15 K, m1 = 0.0798	1008.75	1.628
277.15 K, m1 = 0.0851	1009.29	1.634
277.15 K, m1 = 0.0898	1009.82	1.641
277.15 K, m1 = 0.1003	1010.95	1.646
279.15 K, m1 = 0.0105	1001.12	1.479
279.15 K, m1 = 0.0201	1002.16	1.482
279.15 K, m1 = 0.0301	1003.23	1.491
279.15 K, m1 = 0.0348	1003.74	1.494
279.15 K, m1 = 0.0402	1004.33	1.498
279.15 K, m1 = 0.045	1004.84	1.503
279.15 K, m1 = 0.0501	1005.39	1.506
279.15 K, m1 = 0.0602	1006.49	1.516
279.15 K, m1 = 0.065	1007.01	1.52
279.15 K, m1 = 0.0699	1007.54	1.531
279.15 K, m1 = 0.0752	1008.12	1.532
279.15 K, m1 = 0.0852	1009.19	1.538
279.15 K, m1 = 0.0904	1009.74	1.541
279.15 K, m1 = 0.1005	1010.79	1.548
